Assay results taken from ChEMBL document CHEMBL4043203, “Synthesis and biological evaluations of new nitric oxide-anti-inflammatory drug hybrids” (Bioorg Med Chem Lett, 2017).
pIC50: −log10 of the molar value.

Key:
[1] = molecular target: T1, Prostaglandin G/H synthase 1 (Ovis aries, UniProt P05979); test: Inhibition of ovine COX1 using arachidonic acid as substrate by colorimetric enzyme immune assay
T1 sequence (P05979 whole entry): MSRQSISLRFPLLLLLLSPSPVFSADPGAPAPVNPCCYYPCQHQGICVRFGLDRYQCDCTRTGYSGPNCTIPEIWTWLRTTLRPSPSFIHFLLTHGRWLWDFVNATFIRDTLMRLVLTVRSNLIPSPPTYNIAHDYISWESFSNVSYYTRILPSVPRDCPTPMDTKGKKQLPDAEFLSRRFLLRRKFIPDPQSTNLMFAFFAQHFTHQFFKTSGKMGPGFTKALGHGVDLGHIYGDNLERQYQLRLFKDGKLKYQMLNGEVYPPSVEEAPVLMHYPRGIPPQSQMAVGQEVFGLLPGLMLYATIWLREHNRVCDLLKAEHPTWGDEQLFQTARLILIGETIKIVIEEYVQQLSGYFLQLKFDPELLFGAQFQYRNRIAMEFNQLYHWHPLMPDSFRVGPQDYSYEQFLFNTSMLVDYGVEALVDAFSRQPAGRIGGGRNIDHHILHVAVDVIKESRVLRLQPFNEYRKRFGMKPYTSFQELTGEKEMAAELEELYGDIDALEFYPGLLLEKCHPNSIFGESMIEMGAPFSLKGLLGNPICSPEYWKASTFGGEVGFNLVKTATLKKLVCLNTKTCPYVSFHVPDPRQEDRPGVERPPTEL

[2] = molecular target: T2, Prostaglandin G/H synthase 2 (Homo sapiens, UniProt P35354); test: Inhibition of recombinant human COX2 using arachidonic acid as substrate by colorimetric enzyme immune assay
T2 sequence (P35354 whole entry): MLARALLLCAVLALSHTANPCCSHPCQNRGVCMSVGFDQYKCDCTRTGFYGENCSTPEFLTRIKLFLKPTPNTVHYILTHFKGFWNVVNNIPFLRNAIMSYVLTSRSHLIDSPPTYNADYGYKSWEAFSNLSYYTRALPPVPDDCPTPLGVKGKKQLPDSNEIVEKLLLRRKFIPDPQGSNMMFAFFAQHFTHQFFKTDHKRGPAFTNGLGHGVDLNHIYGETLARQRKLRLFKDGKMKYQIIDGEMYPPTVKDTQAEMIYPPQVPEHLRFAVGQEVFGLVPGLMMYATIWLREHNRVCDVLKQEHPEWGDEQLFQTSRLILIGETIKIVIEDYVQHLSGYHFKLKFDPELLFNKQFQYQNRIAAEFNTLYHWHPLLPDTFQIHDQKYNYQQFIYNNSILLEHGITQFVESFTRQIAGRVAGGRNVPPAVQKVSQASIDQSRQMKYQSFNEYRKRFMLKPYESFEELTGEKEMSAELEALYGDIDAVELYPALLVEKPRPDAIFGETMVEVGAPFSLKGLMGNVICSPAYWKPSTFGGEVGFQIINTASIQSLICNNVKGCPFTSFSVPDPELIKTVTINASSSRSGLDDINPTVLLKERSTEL

[3] = Selectivity index, ratio of IC50 for ovine COX1 to IC50 for recombinant human COX2
Rattus norvegicus [4] = test: Antiinflammatory activity in Wistar albino rat assessed as inhibition of carrageenan-induced left hind paw edema at 50 mg/kg, po pretreated for 1 hr followed by carrageenan addition measured after 2 hrs relative to control; format: functional; conditions: Wister
Rattus norvegicus [5] = test: Antiinflammatory activity in po dosed Wistar albino rat assessed as inhibition of carrageenan-induced left hind paw edema pretreated for 1 hr followed by carrageenan addition measured after 2 hrs; format: functional; conditions: Wister
Rattus norvegicus [6] = test: Antiinflammatory activity in Wistar albino rat assessed as serum nitric oxide level at 50 mg/kg, po treated for 3 successive days measured at 2 hrs post last dose by Griess reagent based colorimetric assay (reference value: 147.90 +/- 31.76 micromol/L); format: functional, Wister
Rattus norvegicus [7] = test: Ulcerogenic activity in Wistar albino rat assessed as ulcer index at 50 mg/kg, po treated for 3 successive days measured at 2 hrs post last dose; format: toxicity, organism-based, Wister; conditions: in vivo
Rattus norvegicus [8] = test: Ulcerogenic activity in Wistar albino rat assessed as relative ulcerogenicity at 50 mg/kg, po treated for 3 successive days measured at 2 hrs post last dose relative to celecoxib; format: toxicity, organism-based, Wister; conditions: in vivo
Rattus norvegicus [9] = species on record: Rattus norvegicus; test: Ulcerogenic activity in Wistar albino rat assessed as lesion in stomach after 48 hrs by hematoxylin and eosin staining based microscopic analysis; format: toxicity, Wister; conditions: in vivo
Rattus norvegicus [10] = species on record: Rattus norvegicus; test: Ulcerogenic activity in Wistar albino rat assessed as minimum vasocapillary dilation in stomach after 48 hrs by hematoxylin and eosin staining based microscopic analysis; format: toxicity, Wister; conditions: in vivo
Rattus norvegicus [11] = species on record: Rattus norvegicus; test: Ulcerogenic activity in Wistar albino rat assessed as loss of mucous in stomach after 48 hrs by hematoxylin and eosin staining based microscopic analysis; format: toxicity, Wister; conditions: in vivo
Rattus norvegicus [12] = species on record: Rattus norvegicus; test: Ulcerogenic activity in Wistar albino rat assessed as abdominal perforation in stomach after 48 hrs by hematoxylin and eosin staining based microscopic analysis; format: toxicity, Wister; conditions: in vivo

SMILES	pIC50 [1]	pIC50 [2]	Ratio IC50 [3]	inhibition in vivo at 50 mg/kg (Rattus norvegicus [4]) [%]	ED50 (Rattus norvegicus [5]) [mg/kg]	Activity (Rattus norvegicus [6]) [µmol/L]	UI (Rattus norvegicus [7])	fold change (FC) (Rattus norvegicus [8])	Activity (Rattus norvegicus [9])	Activity (Rattus norvegicus [10])	Activity (Rattus norvegicus [11])	Activity (Rattus norvegicus [12])
Cc1c(C2=C(N=O)Nc3ccccc3N2)cnn1-c1ccccc1	5.04	5.79	5.77	57	40	370.1	2.33	7.06				
Cc1c(C(=O)c2nocc2C(=O)c2ccccc2)cnn1-c1ccccc1	4.95	5.83	7.44	41	61	372	0.33	1				
Cc1ccc(-c2cc(C(F)(F)F)nn2-c2ccc(S(N)(=O)=O)cc2)cc1 [CELECOXIB]				65	35		0.33		Non-Toxic	Non-Toxic		
Cc1ccc(C(=O)c2conc2C(=O)c2cnn(-c3ccccc3)c2C)cc1	5.34	5.95	4.03	45	56	346.5	1.33	4.03				
COc1ccc2c(c1)c(CC(=O)O)c(C)n2C(=O)c1ccc(Cl)cc1 [INDOMETHACIN]											Toxic	Toxic
Cc1c(-c2nnc(-c3ccccc3)c3conc23)cnn1-c1ccccc1	5.23	6.11	7.84	50	50	314.4	1.76	5.06				
Cc1c(-c2c(N=O)nc3ncccn23)cnn1-c1ccccc1	5.17	5.81	4.38	62	38	386.3	0.33	1	Non-Toxic	Non-Toxic		
Cc1ccc(-c2nnc(-c3cnn(-c4ccccc4)c3C)c3nocc23)cc1	4.99	5.89	7.94	54	46	273.1	0.33	1				
Cc1c(C(=O)c2conc2C(=O)c2cnn(-c3ccccc3)c2C)cnn1-c1ccccc1	5.04	5.35	2.02			286.2	0.33	1				
Cc1c(-c2nc3ccccn3c2N=O)cnn1-c1ccccc1	5.04	5.76	5.25	65	35	402.6	2	6.06				
Cc1c(-c2nc3ccccc3nc2N=O)cnn1-c1ccccc1	5.04	5.18	1.39	59	40	140.1	3	9.09				
Cc1c(C2=C(N=O)Oc3ccccc3N2)cnn1-c1ccccc1	5.07	5.38	2.04	56	45	335.3	2	6.06				
Cc1c(C(=O)/C(Cl)=N/O)cnn1-c1ccccc1	5.01	5.63	4.2	50	50	315.5	5	15.15		Non-Toxic	Non-Toxic	
Cc1c(C2=C(N=O)Oc3cccnc3N2)cnn1-c1ccccc1	5.25	5.91	4.59	64	35	415.3	0.33	1				
Cc1c(-c2nnc(-c3cnn(-c4ccccc4)c3C)c3nocc23)cnn1-c1ccccc1	5.00	5.16	1.46			318.8	1.33	4.03	Non-Toxic	Non-Toxic		
Cc1c(C2=C(N=O)Sc3ccccc3N2)cnn1-c1ccccc1	5.11	5.74	4.21	56	45	348.3	0.33	1				
